viability, T/C and IC50 data for ten compounds are collected here from PubChem BioAssay AID2060499 (Molecular Pharmacology Branch, DTP, NCI, 2025).

This experiment concerns 777334-354-R2-J4-PDC tumor spheroids with HUVEC/MSC, viability. Description: Anticancer human tumor 777334-354-R2-J4-PDC patient-derived pancreatic adenocarcinoma cell line growth inhibition [GQUAD]. The following applies: for viability, T/C: stronger effect = lower value. From the text: DNA G-quadruplex Stabilizer Agents in Combinations in Complex Spheroids
A high-throughput screen of multi-cell type tumor spheroids was designed to identify active combinations of DNA G-quadruplex stabilizer agents and targeted small molecules. Complex spheroids include a stromal component modeled by human endothelial cells (HUVEC) and fibroblasts modeled by human mesenchymal stem cells (MSCs). The concentration ranges selected for each drug and investigational agent were based upon clinically achievable concentrations if the clinical Cmax of the agent was known.
Compounds. The drugs and investigational agents: pidnarulex (CX-5461; NSC782164), APTO-253 (NSC789042), BRACO-19 (NSC847499), peposertib (NSC802822), ceralasertib (NSC780249), elimusertib (NSC800525), camonsertib (NSC841442), AZD-1390 (NSC803789), olaparib (NSC753686), talazoparib (NSC767125), ART-558 (NSC835418), sotorasib (NSC818433), MRTX-1133 (NSC836407), SN-38 (NSC673596), topotecan (NSC609699), etoposide (NSC141540), doxorubicin (NSC123127), gemcitabine (NSC613327), 5-fluorouracil (NSC19893), paclitaxel (NSC125973), vemurafenib (NSC761431), panobinostat (NSC761190), R-306465 (JNJ-16241199; NSC773264), adavosertib (NSC754352), TP-3654 (NSC805149), carboplatin (NSC241240), KSQ-4279 (NSC840948), and staurosporine (NSC755774) were obtained from the National Cancer Institute (NCI) Developmental Therapeutics Program Chemical Repository (34). The FDA-approved anticancer drug set is available from the NCI Developmental Therapeutics Program. […] The stock solutions were prepared in dimethyl sulfoxide (DMSO, Sigma-Aldrich, St. Louis, MO, cat. D2650) at 800-fold the tested concentration and stored at -70 degrees C prior to their use. All drugs and investigational agents were tested over a range starting from a high concentration at or near the clinical Cmax and decreasing in half-log increments. If the clinical Cmax for an agent had not been determined, the highest concentration tested was 10 microM.
2.3 Cell Culture. All cells were maintained in an incubator at 37 degrees C and 5% CO2 with 95% humidity. The PDC lines were cultured according to standard operating procedures established by the NCI PDMR. All PDCs were thawed and cultured in Matrigel-coated flasks prepared with a working solution of 1X Ham's F-12 nutrient mix, without supplementation (Invitrogen, cat. 11765054), 100 U/mL penicillin-streptomycin (Invitrogen, cat. 15140122), and 2.5% Matrigel (Corning Inc., cat. 354248) for the first three passages. The 857933-349-R-J2-PDC line was cultured in 6C/Colon 1B media, which includes advanced DMEM/F-12 (Thermo Fisher Scientific, cat. 12634028), 10 mM HEPES (Thermo Fisher Scientific, cat. 15630080), 1X GlutaMAX supplement (Thermo Fisher Scientific, cat. 35050061), 0.1 mg/mL primocin (InvivoGen, cat. ant-pm-2), 10% defined fetal bovine serum, heat inactivated (HyClone Laboratories Inc., cat. SH30070.03HI), 50% L-WRN conditioned media (ATCC, cat. CRL-3276), 1.25 mM N-Acetyl-L-cysteine (Sigma-Aldrich, cat. A9165), 10 mM nicotinamide (Sigma-Aldrich, cat. N0636), 1X B-27 supplement (Thermo Fisher Scientific, cat. 17504044), 1X N-2 supplement (Thermo Fisher Scientific, cat. 17502048), 10 microM Y-27632 dihydrochloride (Tocris Bioscience, cat. 1254), and 50 ng/mL human EGF recombinant protein (Thermo Fisher Scientific, cat. PHG0311). The 485176-168-R4-J1-PDC line was cultured in Panc media, which includes all 6C/Colon 1B media components plus 100 ng/mL human FGF-10 (Thermo Fisher Scientific, cat. 100-26), 500 nM SB-431542 (Selleckchem, cat. S1067), and gastrin (Tocris, cat. 3006).
[…]

[1] abbreviates: compound alone, run of 03/18/2024.

Values joined by “and” are separate entries in the source; they are usually repeats but may differ in a detail not shown here. Identical values can stand only once. Some results are limits rather than exact numbers.
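Also: spheroids exposed to compounds for 7 days before readout.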

`COc1ccc([C@@H](O)c2cc(-c3ncnc4cc(N5CCOCC5)ccc34)c(F)cc2Cl)nn1`: the viability, T/C (as a rule, the result in the treated group divided by that in the control group, in per cent) is 88.9% and 85.9% and 100% (compound 0.0316 µM); 90.6% and 89.8% and 104% (compound 0.1 µM); 94.2% and 88.9% and 91.9% (compound 0.316 µM); 76.1% and 72.6% and 86.3% (compound 1 µM); 55.1% and 55.7% and 51.5% (compound 3.16 µM); 30.2% and 26.8% and 30.7% (compound 10 µM). Besides, for the setting “curve of compound”, the IC50 (as a rule, the point on the concentration scale where inhibition reaches its midpoint) is 3860 nM and 3820 nM and 3590 nM.

On to `COc1cccc2c1C(=O)c1c(O)c3c(c(O)c1C2=O)CC(O)(C(=O)CO)CC3OC1CC(N)C(O)C(C)O1` (centres undefined), for which the viability, T/C reads like this: (compound 0.0316 µM) 95.8% and 98.8% and 102%; (compound 0.1 µM) 86.7% and 89.4% and 89.9%; (compound 0.316 µM) 69% and 68.8% and 73.9%; (compound 1 µM) 42% and 47.4% and 37.8%; (compound 3.16 µM) 22.2% and 23.6% and 27.6%; (compound 10 µM) 12.6% and 13% and 11.9%. For the same compound, the half-inhibitory concentration (IC50) (curve of compound) is 713 nM and 819 nM and 733 nM.

In the case of `Cc1[nH]c2ccc(F)cc2c1-c1nc2c3cccnc3c3ncccc3c2[nH]1`, the viability, T/C by setting is: (compound 0.0316 µM) 101% [middle of 12 runs]; (compound 0.1 µM) 98% [middle of 12 runs]; (compound 0.316 µM) 97.4% [middle of 11 runs]; (compound 1 µM) 86.4% [middle of 12 runs]; (compound 3.16 µM) 43.9% [middle of 12 runs]. Also, the concentration for half-maximal inhibition (IC50) under setting [1] was 2.51 µM [middle of 7 runs].

In the case of `Cc1[nH]c2ccccc2c1CCNCc1ccc(/C=C/C(=O)NO)cc1`, the viability, T/C was 99% and 100% (2×) (compound 0.000999 µM); 91.5% and 99.1% and 97.5% (compound 0.00316 µM); 106% and 114% and 102% (compound 0.00999 µM); 93.5% and 98.6% and 91.6% (compound 0.0316 µM); 72.8% and 72.4% and 75% (compound 0.0999 µM); 32.1% and 29.1% and 35.9% (compound 0.316 µM). For the same compound, the concentration for half-maximal inhibition (IC50) (curve of compound) was 190 nM and 181 nM and 208 nM.

Regarding `Cc1cccc(N(C)C(=O)C2C(O)CCN2c2nc(C)cc(C(F)(F)F)c2C#N)c1` (centres undefined), the viability, T/C by setting is: (compound 0.0316 µM) 102% (2×) and 107%; (compound 0.1 µM) 108% and 104% and 87.8%; (compound 0.316 µM) 99.9% and 101% and 98.9%; (compound 1 µM) 87.3% and 100% and 95%; (compound 3.16 µM) 92.4% and 93.6% and 109%; (compound 10 µM) 96.5% and 85.7% and 94.7%. The IC50 (curve of compound) was more than 10000 nM.

For the compound `Cc1cnc(CNC(=O)c2c(=O)c3ccc(N4CCCN(C)CC4)nc3n3c2sc2ccccc23)cn1`, the viability, T/C by setting is: (compound 0.0316 µM) 95.7% [middle of 12 runs]; (compound 0.1 µM) 88.5% [middle of 12 runs]; (compound 0.316 µM) 85.2% [middle of 12 runs]; (compound 1 µM) 76% [middle of 12 runs]; (compound 3.16 µM) 68.6% [middle of 12 runs]; (compound 10 µM) 54.9% [middle of 12 runs]. Moreover, the IC50 under setting [1] is > 10000 nM and 7430 nM.

Regarding `Cn1ncnc1[C@H]1c2n[nH]c(=O)c3cc(F)cc(c23)N[C@@H]1c1ccc(F)cc1`, the viability, T/C is 95.4% and 87.7% and 92.6% (compound 0.000999 µM); 103% and 99.5% and 94.9% (compound 0.00316 µM); 99% and 100% and 110% (compound 0.00999 µM); 87.2% and 95.5% and 87.8% (compound 0.0316 µM); 87.4% and 104% and 112% (compound 0.0999 µM); 97.3% and 83.1% and 102% (compound 0.316 µM). Further, the IC50 (curve of compound) was more than 316 nM.

Turning to `Nc1ccn(C2OC(CO)C(O)C2(F)F)c(=O)n1` (centres undefined), the viability, T/C runs as follows: (compound 0.0316 µM) 91.5% and 76.4% and 76.8%; (compound 0.1 µM) 73% and 69.4% and 80%; (compound 0.316 µM) 64.9% and 57.5% and 76.6%; (compound 1 µM) 51.7% and 46.7% and 49.9%; (compound 3.16 µM) 41.5% and 36.5% and 39.1%; (compound 10 µM) 32.9% and 28.9% and 31.4%. Further, the IC50 (curve of compound) is 1210 nM and 707 nM and 1050 nM.

Take `O=C(c1cc(Cc2n[nH]c(=O)c3ccccc23)ccc1F)N1CCN(C(=O)C2CC2)CC1`: the viability, T/C is, setting by setting: (compound 0.0316 µM) 92.5% and 109% and 99%; (compound 0.1 µM) 111% and 84% and 105%; (compound 0.316 µM) 96.9% and 103% and 102%; (compound 1 µM) 84.4% and 89.3% and 94.1%; (compound 3.16 µM) 88.8% and 76.5% and 101%; (compound 10 µM) 77.2% and 75.9% and 79.5%. Also, where the note is “curve of compound”, the IC50 was more than 10000 nM.

On to `O=c1[nH]cc(F)c(=O)[nH]1`, for which the viability, T/C is 103% (2×) and 96.5% (compound 0.0316 µM); 103% and 97.9% and 98.6% (compound 0.1 µM); 104% and 107% and 115% (compound 0.316 µM); 75.3% and 73.9% and 78% (compound 1 µM); 69.9% and 72.7% and 71.7% (compound 3.16 µM); 63.2% and 65.2% and 59.8% (compound 10 µM). For the same compound, for the setting “curve of compound”, the IC50 was more than 10000 nM.
